Source: PubChem BioAssay AID330 (DTP/NCI, 2004)
Several values for one entry are separate records, joined by “and”; a condition that tells them apart may be missing. Equal entries are not always repeated. Toxic doses and inconclusive results are not listed.

Test system: P388 leukemia ip, CD2F1 mice, survival T/C
Experiment: NCI In Vivo Anticancer Drug Screen. Data for tumor model P388 Leukemia (intraperitoneal) in CD2F1 (CDF1) mice
Conditions: endpoint: median survival time, higher = longer survival
Method in brief: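 Mice carrying the transplanted tumor received test compound or vehicle. Survival was recorded in each group, and the value is the treated-group measurement divided by that of the vehicle-treated control group.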

[1] = dose: 50.0 mg/kg/injection, schedule: Q01DX009 (ip), vehicle: Klucel (hydroxypropylcellulose) (HPC)
[2] = dose: 100.0 mg/kg/injection, schedule: Q01DX009 (ip), vehicle: Klucel (hydroxypropylcellulose) (HPC)
[3] = dose: 200.0 mg/kg/injection, schedule: Q01DX009 (ip), vehicle: Klucel (hydroxypropylcellulose) (HPC)
[4] = dose: 50.0 mg/kg/injection, schedule: Q01DX005 (ip), vehicle: saline
[5] = dose: 100.0 mg/kg/injection, schedule: Q01DX005 (ip), vehicle: saline
[6] = dose: 200.0 mg/kg/injection, schedule: Q01DX005 (ip), vehicle: saline
[7] = dose: 25.0 mg/kg/injection, schedule: Q01DX009 (ip), vehicle: Klucel (hydroxypropylcellulose) (HPC)
[8] = dose: 7.5 mg/kg/injection, schedule: Q01DX005 (ip), vehicle: saline with Tween-80
[9] = dose: 15.0 mg/kg/injection, schedule: Q01DX005 (ip), vehicle: saline with Tween-80
[10] = dose: 30.0 mg/kg/injection, schedule: Q01DX005 (ip), vehicle: saline with Tween-80

CN1CCN=C1c1ccc(NC(=O)c2ccc(C(=O)Nc3ccc(C4=NCCN4C)cc3)c(Cl)c2)cc1
T/C (dose: 1.56 mg/kg/injection, schedule: Q01DX005 (ip), vehicle: Klucel (hydroxypropylcellulose) (HPC)): 104 % of control
T/C (dose: 3.12 mg/kg/injection, schedule: Q01DX005 (ip), vehicle: Klucel (hydroxypropylcellulose) (HPC)): 109 % of control
T/C (dose: 6.25 mg/kg/injection, schedule: Q01DX005 (ip), vehicle: Klucel (hydroxypropylcellulose) (HPC)): 118 % of control and 123 % of control

CC(C)(C)[N]=[V]([Cl])([Cl])[Cl]
T/C (dose: 12.5 mg/kg/injection, schedule: Q01DX005 (ip), vehicle: Klucel (hydroxypropylcellulose) (HPC)): 98 % of control
T/C (dose: 25.0 mg/kg/injection, schedule: Q01DX005 (ip), vehicle: Klucel (hydroxypropylcellulose) (HPC)): 91 % of control
T/C (dose: 50.0 mg/kg/injection, schedule: Q01DX005 (ip), vehicle: Klucel (hydroxypropylcellulose) (HPC)): 98 % of control and 91 % of control

S=C1SCCCN1Cc1ccc(Cl)cc1
T/C [1]: 95 % of control
T/C [2]: 104 % of control
T/C [3]: 107 % of control

O=C1C2=C(Nc3ccccc3N2)OC1c1ccc(C2OC3=C(Nc4ccccc4N3)C2=O)cc1 (configuration not stated)
T/C (dose: 60.0 mg/kg/injection, schedule: Q01DX005 (ip), vehicle: Klucel (hydroxypropylcellulose) (HPC)): 88 % of control
T/C (dose: 120.0 mg/kg/injection, schedule: Q01DX005 (ip), vehicle: Klucel (hydroxypropylcellulose) (HPC)): 88 % of control
T/C (dose: 240.0 mg/kg/injection, schedule: Q01DX005 (ip), vehicle: Klucel (hydroxypropylcellulose) (HPC)): 87 % of control

COc1ccc(C=C2C(=O)C=CC2=O)cc1
T/C (dose: 1.25 mg/kg/injection, schedule: Q04DX002 (ip), vehicle: saline with Tween-80): 106 % of control
T/C (dose: 2.5 mg/kg/injection, schedule: Q04DX002 (ip), vehicle: saline with Tween-80): 97 % of control
T/C (dose: 5.0 mg/kg/injection, schedule: Q04DX002 (ip), vehicle: saline with Tween-80): 99 % of control

C/C=C1/CN2CCC1CC2C(O)c1ccnc2ccc(OCCO)cc12 (configuration not stated)
T/C [4]: 97 % of control
T/C [5]: 93 % of control
T/C [6]: 94 % of control

O=C(CN(O)C(=O)c1ccccc1)OCc1ccccc1
T/C (dose: 12.5 mg/kg/injection, schedule: Q01DX009 (ip), vehicle: distilled water + Tween-80): 97 % of control
T/C (dose: 25.0 mg/kg/injection, schedule: Q01DX009 (ip), vehicle: distilled water + Tween-80): 99 % of control
T/C (dose: 50.0 mg/kg/injection, schedule: Q01DX009 (ip), vehicle: distilled water + Tween-80): 99 % of control
T/C (dose: 100.0 mg/kg/injection, schedule: Q01DX009 (ip), vehicle: distilled water + Tween-80): 101 % of control
T/C (dose: 200.0 mg/kg/injection, schedule: Q01DX009 (ip), vehicle: distilled water + Tween-80): 101 % of control

CCn1c(=O)c2[nH]c(C(F)(F)F)nc2n(CC)c1=O
T/C [7]: 86 % of control
T/C [1]: 99 % of control

NC(CS)=NCC12CC3CC(CC(C3)C1)C2
T/C [8]: 100 % of control
T/C [9]: 100 % of control
T/C [10]: 115 % of control

FC(F)(F)C(OCC1CO1)(c1ccccc1)C(F)(F)F (configuration not stated)
T/C [1]: 89 % of control
T/C [2]: 97 % of control
T/C [3]: 97 % of control

O=C1CCC(=O)N1SCc1cccc2ccccc12
T/C [1]: 115 % of control
T/C [2]: 93 % of control
T/C [3]: 102 % of control

COc1ccccc1NC(=S)N/N=C\c1nc2ccccc2c2ccccc12
T/C (dose: 75.0 mg/kg/injection, schedule: Q04DX002 (ip), vehicle: Klucel (hydroxypropylcellulose) (HPC)): 99 % of control
T/C (dose: 150.0 mg/kg/injection, schedule: Q04DX002 (ip), vehicle: Klucel (hydroxypropylcellulose) (HPC)): 96 % of control
T/C (dose: 300.0 mg/kg/injection, schedule: Q04DX002 (ip), vehicle: Klucel (hydroxypropylcellulose) (HPC)): 96 % of control

CC(C)N(CCO)CCO
T/C [4]: 104 % of control
T/C [5]: 98 % of control
T/C [6]: 100 % of control

ClCCOCCOc1c(Cl)cc(Cl)cc1Cl
T/C [2]: 93 % of control
T/C [3]: 103 % of control
T/C (dose: 400.0 mg/kg/injection, schedule: Q01DX009 (ip), vehicle: Klucel (hydroxypropylcellulose) (HPC)): 100 % of control

CC(C)(C)SCC(CSC(C)(C)C)(CSC(C)(C)C)CSC(C)(C)C
T/C (dose: 1.5 mg/kg/injection, schedule: Q01DX001 (ip), vehicle: saline with Tween-80): 102 % of control
T/C (dose: 3.0 mg/kg/injection, schedule: Q01DX001 (ip), vehicle: saline with Tween-80): 98 % of control
T/C (dose: 6.0 mg/kg/injection, schedule: Q01DX001 (ip), vehicle: saline with Tween-80): 112 % of control

COc1ccc(C2=NN(C(C)=O)C(c3cc(OC)c(OC)cc3N)S2)cc1OC (configuration not stated) (tested in a mixture with another compound)
T/C [8]: 97 % of control
T/C [9]: 92 % of control
T/C [10]: 90 % of control

CCC(=O)Oc1ccc(N=Nc2ccc(O)c(/C=N\NC(=O)CNc3ccccc3)c2)cc1
T/C (dose: 100.0 mg/kg/injection, schedule: Q01DX001 (ip), vehicle: saline with Tween-80): 88 % of control
T/C (dose: 200.0 mg/kg/injection, schedule: Q01DX001 (ip), vehicle: saline with Tween-80): 86 % of control
T/C (dose: 400.0 mg/kg/injection, schedule: Q01DX001 (ip), vehicle: saline with Tween-80): 100 % of control

CCOC(=O)c1cc(OCC)c(OCC)c(OCC)c1[N+](=O)[O-]
T/C (dose: 50.0 mg/kg/injection, schedule: Q01DX009 (ip), vehicle: saline + Tween-80 + alcohol): 98 % of control
T/C (dose: 100.0 mg/kg/injection, schedule: Q01DX009 (ip), vehicle: saline + Tween-80 + alcohol): 100 % of control
T/C (dose: 200.0 mg/kg/injection, schedule: Q01DX009 (ip), vehicle: saline + Tween-80 + alcohol): 100 % of control

O=C(N1CCCCC(Cl)(Cl)C1=O)C(Cl)(Cl)Cl
T/C (dose: 50.0 mg/kg/injection, schedule: Q01DX005 (ip), vehicle: saline with Tween-80): 106 % of control
T/C (dose: 100.0 mg/kg/injection, schedule: Q01DX005 (ip), vehicle: saline with Tween-80): 103 % of control

COc1ccc(C(c2c(O)cc(C)[nH]c2=O)c2c(O)cc(C)[nH]c2=O)cc1F
T/C (dose: 50.0 mg/kg/injection, schedule: Q01DX009 (ip), vehicle: saline with Tween-80): 97 % of control
T/C (dose: 100.0 mg/kg/injection, schedule: Q01DX009 (ip), vehicle: saline with Tween-80): 96 % of control
T/C (dose: 200.0 mg/kg/injection, schedule: Q01DX009 (ip), vehicle: saline with Tween-80): 95 % of control

O=C(O)Cc1cnc[nH]1
T/C (dose: 6.25 mg/kg/injection, schedule: Q01DX009 (ip), vehicle: saline): 100 % of control
T/C (dose: 12.5 mg/kg/injection, schedule: Q01DX009 (ip), vehicle: saline): 106 % of control
T/C (dose: 25.0 mg/kg/injection, schedule: Q01DX009 (ip), vehicle: saline): 97 % of control
T/C (dose: 50.0 mg/kg/injection, schedule: Q01DX009 (ip), vehicle: saline): 99 % of control

NS(=O)(=O)c1ccc(NC(=O)CCl)cc1
T/C (dose: 12.5 mg/kg/injection, schedule: Q01DX009 (ip), vehicle: Klucel (hydroxypropylcellulose) (HPC)): 110 % of control
T/C [7]: 108 % of control and 120 % of control
T/C [1]: 110 % of control and 121 % of control
T/C [2]: 121 % of control

COc1cccc2c1C(=O)c1c(O)c3c(c(O)c1C2=O)C[C@@](O)(C(C)=O)C[C@@H]3OC1CC(N(Cc2ccccc2)Cc2ccccc2)C(O)C(C)O1 (some centres not stated)
T/C (dose: 0.78 mg/kg/injection, schedule: Q01DX009 (ip), vehicle: water): 105 % of control
T/C (dose: 1.56 mg/kg/injection, schedule: Q01DX009 (ip), vehicle: water): 114 % of control
T/C (dose: 6.25 mg/kg/injection, schedule: Q01DX009 (ip), vehicle: water): 156 % of control
T/C (dose: 12.5 mg/kg/injection, schedule: Q01DX009 (ip), vehicle: water): 189 % of control and 221 % of control
T/C (dose: 13.0 mg/kg/injection, schedule: Q04DX003 (ip), vehicle: water): 158 % of control
T/C (dose: 21.6 mg/kg/injection, schedule: Q04DX003 (ip), vehicle: water): 180 % of control
T/C (dose: 25.0 mg/kg/injection, schedule: Q01DX009 (ip), vehicle: water): 247 % of control and 271 % of control
T/C (dose: 50.0 mg/kg/injection, schedule: Q01DX009 (ip), vehicle: water): 92 % of control
T/C (dose: 60.0 mg/kg/injection, schedule: Q04DX003 (ip), vehicle: water): 94 % of control

CN=C(N)N/N=C/c1ccc(-c2ccccc2)cc1
T/C (dose: 25.0 mg/kg/injection, schedule: Q04DX002 (ip), vehicle: saline): 105 % of control
T/C (dose: 50.0 mg/kg/injection, schedule: Q04DX002 (ip), vehicle: saline): 111 % of control

Cc1n[nH]c(=O)c2cc3oc4ccccc4c3n12
T/C (dose: 60.0 mg/kg/injection, schedule: Q01DX005 (ip), vehicle: saline with Tween-80): 100 % of control
T/C (dose: 120.0 mg/kg/injection, schedule: Q01DX005 (ip), vehicle: saline with Tween-80): 94 % of control
T/C (dose: 240.0 mg/kg/injection, schedule: Q01DX005 (ip), vehicle: saline with Tween-80): 92 % of control
